Data on 73 compounds can be found in patent US7186831B2, “5-halo-2-alkyl[1,2,4]triazolo[1,5-a]pyrimidin-7-amines” (priority 2001, dated 2007).

This series in a line: log P by HPLC. The format is physicochemical.
The mark [1] stands for this setting: HPLC, gradient method, acetonitrile/0.1% aqueous phosphoric acid, EEC directive 79/831 Annex V. A8.
Where [2] appears, read: EEC directive 79/831 Annex V. A8 by HPLC (gradient method, acetonitrile/0.1% aqueous phosphoric acid).

Each structure is given as a SMILES string.

On to `COCCNc1c(-c2c(F)cccc2F)c(Cl)nc2nc(C)nn12` [compound 177], for which, under setting [1], the lipophilicity (logP) was determined as 2.12. The same measure, in the same setting: the value for `COC(=O)C(CO)Nc1c(-c2c(F)cc(F)cc2F)c(Cl)nc2nc(C)nn12` (stereo not shown) [compound 115] was 1.93. Under setting [2], `Cc1nc2nc(Cl)c(-c3ccc(F)cc3F)c(N3CCCCC3)n2n1` [compound 295] gave a logP of 3.32. Under setting [1], `CN1CCN(c2c(-c3ccc(F)cc3F)c(Cl)nc3nc(C4CC4)nn23)CC1` [compound 735] came in with a logP of 1.43.

With `Cc1nc2nc(Cl)c(-c3ccc(F)cc3F)c(N3CCCC(O)C3)n2n1` (stereo not shown) [compound 452], the logP under setting [2] was 2.2. The compound `CCc1nc2nc(Cl)c(-c3c(F)cc(F)cc3F)c(NCC#N)n2n1` [compound 23] yielded a log partition coefficient (logP) under setting [1] of 2.27.

As to `CCC(C)Nc1c(-c2c(F)cc(F)cc2F)c(Cl)nc2nc(C)nn12` (stereo not shown) [compound 147], under setting [1], the logP came out at 3.1. Same read-out and setting: the value for `C=CCN(C)c1c(-c2ccc(F)cc2F)c(Cl)nc2nc(C(F)(F)F)nn12` [compound 541] was 4.09; that for `CN(C)c1c(-c2ccc(F)cc2F)c(Cl)nc2nc(C3CC3)nn12` [compound 722] was 3.06. As to `Fc1cc(F)c(-c2c(Cl)nc3nc(C4CC4)nn3c2NCC2CC2)c(F)c1` [compound 465], the logP under setting [2] turned out to be 3.43.

Under setting [1], `CC1=CCCN(c2c(-c3ccc(F)cc3F)c(Cl)nc3nc(C(F)(F)F)nn23)C1` [compound 802] returned a lipophilicity (logP) of 4.55. Under setting [2], `CCOC(=O)CN(CC)c1c(-c2c(F)cccc2Cl)c(Cl)nc2nc(C)nn12` [compound 270] showed a logP of 3.14.

The compound `COC(=O)CN(C)c1c(-c2ccc(F)cc2F)c(Cl)nc2nc(C3CC3)nn12` [compound 720] had a logP under setting [1] of 2.95. Take `Cc1nc2nc(Cl)c(-c3c(F)cc(F)cc3F)c(N3OCCCC3C)n2n1` (stereo not shown) [compound 686]: under setting [1], the logP worked out at 3.42. Same read-out and setting: the value for `Cc1nc2nc(Cl)c(-c3ccccc3Cl)c(N3CC=CCC3)n2n1` [compound 228] was 0.75. For `CC(C)(C)CNc1c(-c2ccc(F)cc2F)c(Cl)nc2nc(C(F)(F)F)nn12` [compound 527], the log partition coefficient (logP) under setting [1] came out at 4.4. On the same count and under the same terms, the same measure for `CN(CCC#N)c1c(-c2ccc(F)cc2F)c(Cl)nc2nc(C3CC3)nn12` [compound 718]: 2.79. On the same count and under the same terms, the same measure for `C=CCONc1c(-c2c(F)cccc2F)c(Cl)nc2nc(C)nn12` [compound 140]: 2.38; for `C=CCN(CC)c1c(-c2ccc(F)cc2F)c(Cl)nc2nc(C)nn12` [compound 207]: 3.35; for `CC(Nc1c(-c2ccc(F)cc2Cl)c(Cl)nc2nc(C3CC3)nn12)C(F)(F)F` (single isomer, unassigned) [compound 768]: 3.77. Take `CCOC(=O)CN(c1c(-c2c(F)cccc2F)c(Cl)nc2nc(C)nn12)C1CC1` [compound 440]: the logP under setting [2] worked out at 3. For `CCN(CC1CCCO1)c1c(-c2ccc(F)cc2F)c(Cl)nc2nc(C)nn12` (stereo not shown) [compound 208], the logP under setting [1] is on record as 3.18.

With `Cc1nc2nc(Cl)c(-c3c(F)cccc3F)c(NOC(C)(C)C)n2n1` [compound 141], the logP under setting [1] was determined as 2.68.

`Cc1nc2nc(Cl)c(-c3c(F)cccc3F)c(NCC#N)n2n1` [compound 420] gave a logP under setting [2] of 1.91. In turn, `CCCCN(C)c1c(-c2c(F)cccc2F)c(Cl)nc2nc(C)nn12` [compound 338] registered a logP under setting [2] of 3.46. As to `Fc1ccc(-c2c(Cl)nc3nc(C4CC4)nn3c2NC2CC(C(F)(F)F)CC(C(F)(F)F)C2)c(F)c1` (stereo not shown) [compound 716], the logP under setting [1] was 4.31. `Fc1ccc(-c2c(Cl)nc3nc(C4CC4)nn3c2N2CCCC2)c(Cl)c1` [compound 634] displayed a logP under setting [1] of 3.72. The same measure, in the same setting: the same measure for `CNc1c(-c2c(F)cc(F)cc2F)c(Cl)nc2nc(C(F)(F)F)nn12` [compound 108]: 3.17; for `C=C(C)CNc1c(-c2ccc(F)cc2F)c(Cl)nc2nc(C)nn12` [compound 201]: 2.72. For the compound `CCc1nc2nc(Cl)c(-c3c(F)cc(F)cc3F)c(N(CC)CCOC)n2n1` [compound 30], the logP under setting [1] is 3.37. Compound `Cc1nc2nc(Cl)c(-c3ccc(F)cc3F)c(N3CCCC3C)n2n1` (stereo not shown) [compound 280] returned a logP under setting [2] of 3.14. `Cc1nc2nc(Cl)c(-c3c(F)cccc3F)c(N3CCSCC3)n2n1` [compound 179] displayed a logP under setting [1] of 2.84.

Consider `Cc1nc2nc(Cl)c(-c3ccc(F)cc3F)c(N(C)CC(C)C)n2n1` [compound 205], for which, under setting [1], the logP is 3.49. Compound `Cc1nc2nc(Cl)c(-c3c(F)cccc3F)c(NOCc3ccc(C(F)(F)F)cc3)n2n1` [compound 430] showed a logP under setting [2] of 3.44. Under setting [2], `CCN(Cc1ccco1)c1c(-c2c(F)cccc2F)c(Cl)nc2nc(C)nn12` [compound 340] showed a logP of 3.28. The same measure, in the same setting: the value for `CCN(CCOC)c1c(-c2c(F)cc(F)cc2F)c(Cl)nc2nc(C3CC3)nn12` [compound 470] was 3.64. Under setting [1], `CN(Cc1ccco1)c1c(-c2ccc(F)cc2F)c(Cl)nc2nc(C(F)(F)F)nn12` [compound 543] gave a logP of 4.11. The same measure, in the same setting: the same measure for `Fc1ccc(-c2c(Cl)nc3nc(C4CC4)nn3c2N2CCCC2C(F)(F)F)c(F)c1` (stereo not shown) [compound 729]: 4.14. `Cc1nc2nc(Cl)c(-c3ccc(F)cc3F)c(N3CCC(O)C3)n2n1` (stereo not shown) [compound 415] showed a logP under setting [2] of 1.95.

As to `C=C(C)CN(CC)c1c(-c2ccc(F)cc2Cl)c(Cl)nc2nc(C3CC3)nn12` [compound 630], the lipophilicity (logP) under setting [1] turned out to be 4.77. The same measure, in the same setting: the same measure for `CCCCN(CC)c1c(-c2ccc(F)cc2F)c(Cl)nc2nc(C3CC3)nn12` [compound 596]: 4.52. As to `C=CCN(C)c1c(-c2ccc(F)cc2F)c(Cl)nc2nc(C)nn12` [compound 203], the logP under setting [1] amounted to 3.06. With `Cc1nc2nc(Cl)c(-c3c(F)cccc3F)c(N3CCN(C)CC3)n2n1` [compound 324], the logP under setting [2] is recorded as 1.12. Consider `Cc1nc2nc(Cl)c(-c3c(F)cc(F)cc3F)c(NC(C)C(F)(F)F)n2n1` (stereo not shown) [compound 69], for which the logP under setting [1] is 3.04. `Cc1nc2nc(Cl)c(-c3ccc(F)cc3F)c(NC3CCCC(C(F)(F)F)C3)n2n1` (stereo not shown) [compound 349] displayed a logP under setting [2] of 3.52. Still for that read-out and setting: the same measure for `CC(=O)CC(C)(C)Nc1c(-c2ccc(F)cc2F)c(Cl)nc2nc(C)nn12` [compound 407]: 2.53. Under setting [1], `Cc1nc2nc(Cl)c(-c3ccc(F)cc3Cl)c(NCC(F)F)n2n1` [compound 697] gave a logP of 2.54. The compound `CC(C)C(C)Nc1c(-c2ccc(Cl)cc2Cl)c(Cl)nc2nc(C3CC3)nn12` (single isomer, unassigned) [compound 756] gave a logP under setting [1] of 4.72. The compound `Cc1nc2nc(Cl)c(-c3ccc(F)cc3F)c(N(C)CC3OCCO3)n2n1` [compound 202] displayed a lipophilicity (logP) under setting [1] of 2.56.

In turn, `CCCCN(CC)c1c(-c2c(F)cc(F)cc2F)c(Cl)nc2nc(C)nn12` [compound 161] gave a logP under setting [1] of 4.08.

The compound `CN(CC1CC1(Cl)Cl)c1c(-c2c(F)cc(F)cc2F)c(Cl)nc2nc(C3CC3)nn12` (stereo not shown) [compound 509] gave a logP under setting [2] of 4.26.

As to `COCCNc1c(-c2ccc(F)cc2Cl)c(Cl)nc2nc(C3CC3)nn12` [compound 616], the logP under setting [1] was 3.07. Regarding `CC(Nc1c(-c2ccc(F)cc2F)c(Cl)nc2nc(C(F)(F)F)nn12)C1CCCCC1` (stereo not shown) [compound 557], the logP under setting [1] turned out to be 5.12. Same read-out and setting: the same measure for `Fc1ccc(-c2c(Cl)nc3nc(C(F)(F)F)nn3c2N2CCc3ccccc3C2)c(F)c1` [compound 815]: 4.35. The compound `CN(CC1CC1(Cl)Cl)c1c(-c2ccccc2Cl)c(Cl)nc2nc(C3CC3)nn12` (stereo not shown) [compound 508] displayed a logP under setting [2] of 4.29. Compound `Cc1nc2nc(Cl)c(-c3c(F)cccc3F)c(N(O)C(C)C)n2n1` [compound 426] showed a logP under setting [2] of 2.52. In turn, `Cc1nc2nc(Cl)c(-c3ccc(F)c(Cl)c3)c(NC(C)C)n2n1` [compound 82] had a logP under setting [1] of 3.01. On the same count and under the same terms, the value for `Cc1nc2nc(Cl)c(-c3c(F)cccc3F)c(NC3CCCC(C(F)(F)F)C3)n2n1` (stereo not shown) [compound 188] was 3.37. Compound `Cc1nc2nc(Cl)c(-c3c(F)cccc3F)c(N3CCCCC3C(F)(F)F)n2n1` (stereo not shown) [compound 423] registered a logP under setting [2] of 3.33. The compound `Cc1nc2nc(Cl)c(-c3ccc(Cl)cc3Cl)c(N3CCCCN3)n2n1` [compound 784] showed a logP under setting [1] of 3.35. Same read-out and setting: the same measure for `Cc1nc2nc(Cl)c(-c3c(F)cc(F)cc3F)c(NC(C)CO)n2n1` (stereo not shown) [compound 122]: 1.93. For `Fc1cc(F)c(-c2c(Cl)nc3nc(C(F)(F)F)nn3c2NC2CC2)c(F)c1` [compound 35], under setting [1], the logP was 3.53. Still for that read-out and setting: the same measure for `CC1CN(c2c(-c3ccc(F)cc3F)c(Cl)nc3nc(C4CC4)nn23)CC(C)O1` (stereo not shown) [compound 736]: 3.63.

With `Cc1cccc(Nc2c(-c3c(F)cccc3F)c(Cl)nc3nc(C)nn23)c1` [compound 326], the logP under setting [2] was found to be 2.89.

As to `Cc1nc2nc(Cl)c(-c3c(F)cccc3F)c(N3CCCC3C)n2n1` (stereo not shown) [compound 304], the logP under setting [2] worked out at 3.02. In turn, `Cc1cccc(Nc2c(-c3ccc(F)cc3F)c(Cl)nc3nc(C(F)(F)F)nn23)c1` [compound 812] came in with a logP under setting [1] of 4.04. Still for that read-out and setting: the value for `Cc1nc2nc(Cl)c(-c3c(F)cc(F)cc3F)c(NC(C)C(F)(F)F)n2n1` (stereo not shown) [compound 113] was 3.03. On to `Fc1ccc(-c2c(Cl)nc3nc(C4CC4)nn3c2N2CCc3ccccc3C2)c(F)c1` [compound 522], for which the lipophilicity (logP) under setting [2] is listed as 3.87. As for `Cc1nc2nc(Cl)c(-c3c(F)cccc3Cl)c(N3CCCC3)n2n1` [compound 251], under setting [1], the logP is 2.95.

Turning to `CC1CCN(c2c(-c3ccc(F)cc3F)c(Cl)nc3nc(C(F)(F)F)nn23)CC1` [compound 798], the logP under setting [1] amounted to 4.8. Take `CCCN(CC1CCCO1)c1c(-c2c(F)cccc2Cl)c(Cl)nc2nc(C)nn12` (stereo not shown) [compound 277]: the logP under setting [2] is on record as 3.72. Under setting [1], `Cc1nc2nc(Cl)c(-c3c(F)cccc3F)c(NC3CC(C(F)(F)F)CC(C(F)(F)F)C3)n2n1` (stereo not shown) [compound 189] displayed a logP of 3.62.

In the case of `CC(Nc1c(-c2c(F)cc(F)cc2F)c(Cl)nc2nc(C(C)(C)C)nn12)C(F)(F)F` (stereo not shown) [compound 9], the logP under setting [1] is reported as 4.24.
